Measurements published in patent publication US20250361281A1, “AMYLIN RECEPTOR (hAMY3R) AGONISTS WITH IMPROVED CHEMICAL STABILITY” (GUBRA A/S, priority 2022, published 2025).
Starred links: 1 amine or outer side, 2 acyl side, 3 side chain; linkers in the order of their positions; H or OH if unused. Positions of bridges follow the written chain, without caps; N, C: chain ends. Non-standard residues stand in square brackets, D forms with d. Residues, ends and D or L forms follow the SMILES beside them. *: point of attachment. C20 diacid = O=C(O)CCCCCCCCCCCCCCCCCCC(=O)*; γGlu = O=C(O)[C@H](CCC(=O)[*:2])N[*:1]; Hyp = O=C(O)[C@@H]1C[C@@H](O)CN1; CH2 = C([*:1])[*:2]

Assays:
[1] = Determination of dimer and HMWP formation (size exclusion chromatography); assay type: physicochemical; settings: 50 mM phosphate buffer pH 7, 40° C., up to 28 days
Protocol: General Protocol for Determination of Dimer and HMWP Formation
Peptides were dissolved in 50 mM phosphate buffer (pH 7) and incubated at 40° C. for up to 28 days. The samples were then analysed using size exclusion chromatography analysis to quantify the amount of High Molecular Weight Products (HMWP), which is an overall term for covalently linked peptide dimers, trimers, and higher order multimers. Analyses were carried out on a Dionex Ultimate 3000 RS UHPLC Focused chromatography system (Thermo Scientific) equipped with a Acquity Protein BEH SEC 1.7 μm 4.6×300 mm 125 Å column (Waters part no 186006506). The solvent system consisted of two mobile phases that are assumed to break all non-covalent interactions between peptides leaving only monomeric peptide and covalent HMWP to be analysed. • Mobile phase A (all v/v %): 95% H2O, 5% MeCN (Acetonitrile), 0.1% TFA (Trifluoroacetic acid) • Mobile phase B (all v/v %): 95% MeCN, 5% H2O, 0.1% TFA
The typically load was 1 μl of 1.0 mg/ml, and the detection signal at 215 nm should optimally be between 0.1 and 1.5 abs units. Isocratic elution was done with 60% mobile phase B and a flow of 0.3 ml/min in 20 minutes. Chromatograms were integrated as HMWP (all peaks in front of the main peak) The amount of the various species was reported as area relative to total area in percentage.

[2] = Determination of deamidation and isomerization (LC-MS); assay type: physicochemical; settings: 50 mM phosphate buffer pH 7, 40° C., up to 28 days
Protocol: General Protocol for Determination of Deamidation and Isomerization
Peptides were dissolved in 50 mM phosphate buffer (pH 7) and incubated at 40° C. for up to 28 days. The samples were then analysed on a Exploris120 mass spectrometer coupled to a Vanquish Tandem UPLC (both Thermo Fisher) equipped with an Acquity BEH C18 column (1.7 um, 2.1×50 mm, 130A, Waters). Peptides were eluted using a linear gradient starting at 5% over 7.5 min to 70% buffer B at a flow rate of 0.4 mL/min (buffer B=100% acetonitrile with 0.1% formic acid; buffer A=100% water with 0.1% formic acid). Data were acquired in data-dependent acquisition mode at a MS1 resolution of 60.000, and a MS2 resolution of 30.000 in positive mode (Top4). Peptides were fragmented with a normalized collision energy of 25%. Deamidation and isomerization were quantified using area under the curve integration.

[3] = target: T1, hAM1 receptor (Homo sapiens, UniProt O60895+Q16602); assay: cAMP assay for in vitro receptor activation, hAM1-R; assay type: cell-based; settings: cells stably overexpressing hAM1 receptor, cAMP accumulation, 30 min stimulation; read-out: hAM1R EC50
T1 construct: monoclonal sub-clone
Protocol: General Protocols for cAMP Assays for Measuring In Vitro Receptor Activation hAMY3-R:
Cells stably overexpressing the hAM1 receptor were obtained from Ogeda (now Astellas Pharma), sub-cloned and a monoclonal cell-line with an appropriate assay-window was expanded, aliquoted and frozen. An aliquot was thawed and plated in DPBS with 0.05% casein and 0.5 mM IBMX as 8000 cells/well in a 384-well format.

[4] = Physical stability of peptide analogues (Thioflavin T fibrillation); assay type: physicochemical; settings: ThT fluorescence, 40° C., shaking, four days; pH 4 or pH 7 buffer
Protocol: General Protocols for Determination of Physical Stability of Peptide Analogues
Peptides were dissolved in buffers (50 mM sodium acetate at pH 4 or 50 mM sodium phosphate at pH 7) and incubated for one hour. The samples were then divided into two replicates of 80 μl in a black 384 well plate (μ-clear, Greiner Bio-One) and mixed with Thioflavin T (ThT) to a final concentration of 4 μM. The plate was sealed and placed in a plate reader (CLARIOstar, BMG) where the temperature was set at 40° C. during the course of the experiment. The samples were further stressed by shaking the plate at 700 rpm (linear) for five minutes before every measurement. The fluorescence was measured every 10 min for four days by exciting the ThT at 450 nm and measuring the emission at 480 nm. For each peptide, the ThT signal over time was smoothened using Local Polynomial Regression fitting (LOESS) as implemented in the statistical programming environment R. For the smoothened data, the maximum ThT signal was normalized in percent between the maximum ThT signal for hAMY and the buffer background.

T1 sequence (Q16602 23-461): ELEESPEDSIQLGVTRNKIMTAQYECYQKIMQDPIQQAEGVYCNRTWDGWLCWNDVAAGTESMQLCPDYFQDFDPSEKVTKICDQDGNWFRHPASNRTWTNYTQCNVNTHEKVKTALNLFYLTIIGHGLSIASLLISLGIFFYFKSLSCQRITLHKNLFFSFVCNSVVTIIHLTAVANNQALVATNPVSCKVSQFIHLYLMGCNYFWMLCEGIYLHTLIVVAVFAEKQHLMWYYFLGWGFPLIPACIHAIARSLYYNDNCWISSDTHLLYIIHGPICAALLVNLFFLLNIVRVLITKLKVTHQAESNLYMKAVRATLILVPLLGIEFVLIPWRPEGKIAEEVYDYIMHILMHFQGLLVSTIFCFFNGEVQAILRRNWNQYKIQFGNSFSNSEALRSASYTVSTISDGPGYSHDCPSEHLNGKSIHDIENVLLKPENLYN
T1 sequence (O60895 43-175 partner): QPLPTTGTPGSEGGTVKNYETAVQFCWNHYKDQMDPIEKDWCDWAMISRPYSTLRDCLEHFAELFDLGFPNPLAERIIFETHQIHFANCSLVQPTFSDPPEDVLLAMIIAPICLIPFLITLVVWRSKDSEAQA

Compound: CC[C@H](C)[C@H](NC(=O)[C@H](CCC(N)=O)NC(=O)[C@H](CCC(=O)O)NC(=O)[C@H](C)NC(=O)[C@H](CC(C)C)NC(=O)[C@H](CCCNC(=N)N)NC(=O)[C@H](C)NC(=O)[C@@H](NC(=O)[C@@H](NC(=O)[C@@H]1CSCSC[C@H](NC(=O)[C@H](CCCCN)NC(=O)CC[C@H](NC(=O)CCCCCCCCCCCCCCCCCCC(=O)O)C(=O)O)C(=O)N[C@@H](CC(C)C)C(=O)N[C@@H]([C@@H](C)O)C(=O)N[C@@H](C)C(=O)N[C@@H]([C@@H](C)O)C(=O)N1)[C@@H](C)O)C(C)C)C(=O)N[C@@H](C)C(=O)N[C@@H](CCC(N)=O)C(=O)N[C@@H](Cc1ccccc1)C(=O)N[C@H](C(=O)N[C@@H](CC(=O)O)C(=O)N[C@@H](CCCCN)C(=O)N[C@@H](CC(=O)O)C(=O)N[C@@H](CCCCN)C(=O)N[C@@H](CCC(=O)O)C(=O)N[C@@H](CC(N)=O)C(=O)N[C@H](C(=O)N[C@@H](C)C(=O)N1CCC[C@H]1C(=O)N1CCC[C@H]1C(=O)N[C@H](C(=O)N[C@@H](C)C(=O)N[C@H](C(=O)NCC(=O)N[C@@H](CO)C(=O)N[C@@H](C)C(=O)NCC(=O)N1C[C@H](O)C[C@H]1C(N)=O)C(C)C)[C@@H](C)O)C(C)C)[C@@H](C)O [SEQ ID NO: 4] ({C20 diacid-γGlu}-KCLTATCTVARLAEQIAQFTDKDKENVAPPTAVGSAG[Hyp]-NH2; linker 2-7 via CH2)
- Dimerization and HMWP formation [1]: 2%
- Deamidation [2]: < 5%
- Isomerization [2]: 1.2%
- Deamidation ([2]; listed as 4): <5%
- EC50 [3]: > 5 µM
- Fibril formation [4]: No
